The values that follow come from US7183106B1, “Bacterial inosine 5′-monophosphate dehydrogenase (“IMPDH”) DNA as a dominant selectable marker in mammals and other eukaryotes” (The United States of America as represented by the United …, priority 2004, dated 2007).

Holding throughout (experiment): MPA toxicity by MTT assay
A general note: Tetrazolium assays rely on reduction of a dye to a coloured formazan, in cell work by metabolically active cells.

One data set relates to COS7 cells. It is filed as cell-based, monkey. On the procedure:
The mammalian cells (2×10^7) (i.e. V79, MDA-MB-231, PC3, COS7) were washed once with phosphate buffered saline (PBS), resuspended in 400 μl of Cytomix buffer, placed in an electroporation cuvette and transfected with 10 μg of DNA by electroporation at 200V, 30 ms, in an ElectroSquarePorator T280 electroporator (BTX, Inc., San Diego, Calif.). Immediately after electroporation, the cuvettes were placed on ice for 10–15 min. After that the cells were washed once in PBS and 1×10^6 viable cells, as determined by trypan blue exclusion, were re-suspended in 10 ml of growth medium in 100 mm tissue culture plates, incubated overnight at 37° C. and treated the next day with 0.8 μg/ml of MPA (stock concentration at 14.2 mg/ml in DMSO, Sigma, St. Louis, Mo.) or 600 μg/ml of G418. For the different assays, cells were obtained from either individual or pooled MPA-resistant colonies. For colony isolation, visible individual colonies were each picked and aspirated into a glass Pasteur pipette and transferred into a well of a 24-well tissue culture plate. The next day, after rinsing the wells with the colonies with PBS and incubation for 1–2 min in a drop of a trypsin/EDTA solution, the cells within each well were dispersed by forceful pipetting. Next, the cells were incubated in growth medium to generate a monolayer culture, which was used to determine the cells' susceptibility to MPA. […] MPA toxicity was determined by the MTT (methylthiazoletetrazolium) assay (described in detail below) while the expression of the green fluorescent protein (GFP) was detected by fluorescence microscopy and/or flow cytometry.
Cell survival and proliferation was measured using the MTT assay, which detects active mitochondria and as a result viable cells. […] The plates were then centrifuged at 1000 rpm for 5 min, supernatants discarded and 100 µl of DMSO added per well, and the plates were read at 540 nm using a microtiter plate reader.

A further data set deals with MDA-MB-231 cells. In kind it is cell-based, human. On the procedure:
(§1) The mammalian cells (2×10^7) (i.e. V79, MDA-MB-231, PC3, COS7) were washed once with phosphate buffered saline (PBS), resuspended in 400 μl of Cytomix buffer, placed in an electroporation cuvette and transfected with 10 μg of DNA by electroporation at 200V, 30 ms, in an ElectroSquarePorator T280 electroporator (BTX, Inc., San Diego, Calif.). Immediately after electroporation, the cuvettes were placed on ice for 10–15 min. After that the cells were washed once in PBS and 1×10^6 viable cells, as determined by trypan blue exclusion, were re-suspended in 10 ml of growth medium in 100 mm tissue culture plates, incubated overnight at 37° C. and treated the next day with 0.8 μg/ml of MPA (stock concentration at 14.2 mg/ml in DMSO, Sigma, St. Louis, Mo.) or 600 μg/ml of G418. For the different assays, cells were obtained from either individual or pooled MPA-resistant colonies. For colony isolation, visible individual colonies were each picked and aspirated into a glass Pasteur pipette and transferred into a well of a 24-well tissue culture plate. The next day, after rinsing the wells with the colonies with PBS and incubation for 1–2 min in a drop of a trypsin/EDTA solution, the cells within each well were dispersed by forceful pipetting. Next, the cells were incubated in growth medium to generate a monolayer culture, which was used to determine the cells' susceptibility to MPA. Cultures were also obtained from single MPA-resistant cells derived from pooled colonies by seeding 2.5 cells/ml into 96-well flat-bottom microtiter plates in 200 μl of growth medium/well and only cultures deriving from wells that were initially found to contain single cells were used. MPA toxicity was determined by the MTT (methylthiazoletetrazolium) assay (described in detail below) while the expression of the green fluorescent protein (GFP) was detected by fluorescence microscopy and/or flow cytometry.
(§2) Cell survival and proliferation was measured using the MTT assay, which detects active mitochondria and as a result viable cells. For this assay, 2×10^4 cells were suspended in 200 μl of growth medium/well in 96-well flat-bottom microtiter plates with various stimuli and incubated at 37° C. After 6 d, 10 μl of MTT solution (5 mg/ml in PBS) (Sigma, St. Louis, Mo.) was added to each well and the plates were incubated for an additional 4 h at 37° C. In the case of V79 cells, which grow twice as fast as the other cell lines, the MTT solution was added after 3 d. The plates were then centrifuged at 1000 rpm for 5 min, supernatants discarded and 100 µl of DMSO added per well, and the plates were read at 540 nm using a microtiter plate reader.

The next data set deals with PC3 cells. It is filed as cell-based, human. On the procedure: as §1, §2
Another data set has as its system V79 cells. In kind it is cell-based, Chinese hamster. On the procedure:
as §1, §2

Where only a bound is given, the exact number is not on record here.

As for `COc1c(C)c2c(c(O)c1C/C=C(\C)CCC(=O)O)C(=O)OC2` [MPA, mycophenolic acid], the “MTT staining of control cultures after 4 weeks of MPA treatment” value in the data set on COS7 cells (control (not transfected parental) COS7 cultures, 4 weeks) was “no MTT staining above background levels”; in the data set on MDA-MB-231 cells (control (not transfected parental) MDA-MB-231 cultures, 4 weeks) it was “no MTT staining above background levels”; with PC3 cells (control (not transfected parental) PC3 cultures, 4 weeks) it was “no MTT staining above background levels”. Moreover, the “MPA concentration to whose cytotoxic effect the cells were resistant” value in the data set with COS7 cells (single cell-derived cultures from pooled MPA-resistant COS7 colonies) is given as “up to 50 μg/ml”; in the data set on MDA-MB-231 cells (single cell-derived cultures from pooled MPA-resistant MDA-MB-231 colonies) it was “up to 50 μg/ml”; in the data set on PC3 cells (single cell-derived cultures from pooled MPA-resistant PC3 colonies), “up to 50 μg/ml”; in the data set on V79 cells (7 individual MPA-resistant V79 colonies (pFLAG-IMPDH transfected), MTT assay), “up to 50 μg/ml”; in the data set on V79 cells (single cell-derived cultures from pooled MPA-resistant V79 colonies), “up to 50 μg/ml”. In addition, the “Time after MPA treatment at which growth inhibition was detected” value in the data set with COS7 cells (wild type COS7 cells) came out at 6 days; with MDA-MB-231 cells (wild type MDA-MB-231 cells) it was 6 days; in the data set with PC3 cells (wild type PC3 cells), 6 days; in the data set with V79 cells (wild type V79 cells) it was 3 days. Besides, in the data set with V79 cells (parental (not transfected) V79 cells), the “MPA concentration at which cells failed to grow” value was at most 0.8 µg/mL.
